Data from patent EP4019017A1, “COMPOSITION COMPRISING MELATONIN, PIPERINE AND VITAMIN D, CONTROLLED-RELEASE FORMULATION AND USE THEREOF FOR THE TREATMENT OF SLEEP DISORDERS” (Uriach Consumer Healthcare, S.L., priority 2020, dated 2022).
Where two headings read alike, the source gives them in different places.

Assays:
[1] = tested on: Intestinal cells (Caco-2); assay: Intestinal cells - cell viability; type: cell-based; design: unit not given here
Description: For this purpose, intestinal barrier model (transwell, patented model from Novara University, Italy) is used to determine the rate of passage and therefore to estimate a better pass-effect of melatonin in combination with piperine and vitamin D than melatonin alone. In this phase, vitality will also be assessed in the presence of the treatments alone and in combination with melatonin, in addition to melatonin alone. […] A time-dependent trend can be observed for all tested substances. In addition, substances other than melatonin have an efficacy that resolves within 2-4 hours of treatment.

[2] = cited from earlier work
[3] = tested on: Intestinal cells (Caco-2); assay: Intestinal absorption rate, intestinal barrier model (transwell), fluorescent tracer; type: in vitro ADME
Description: For this purpose, intestinal barrier model (transwell, patented model from Novara University, Italy) is used to determine the rate of passage and therefore to estimate a better pass-effect of melatonin in combination with piperine and vitamin D than melatonin alone. In this phase, vitality will also be assessed in the presence of the treatments alone and in combination with melatonin, in addition to melatonin alone. […] 3.1.b. Intestinal absorption: to determine speed based on the fluorescent tracer, the percentage velocity calculated with respect to the control.

[4] = Time 1 h, Melatonin 1mM, Piperine 5µM, Vitamin D3 1nM, Vitamin B6 500µM

COc1ccc2[nH]cc(CCNC(C)=O)c2c1 [Melatonin, N-[2-(5-Methoxy-1H-indol-3-yl)ethyl]acetamide]
Cell viability, Average [1, 4]: 13.375
Cell viability, Average ([1]; Time 2 h): 10.905
Cell viability, Average ([1]; Time 3 h): 7.57
Cell viability, Average ([1]; Time 4 h): 6.965
Cell viability, Average ([1]; Time 5 h): 2.57
Cell viability, Average ([1]; Time 6 h): 1.005

Cc1ncc(CO)c(CO)c1O.Cl [Vitamin B6, Pyridoxine HCI]
Cell viability, Average [1, 4]: 11.985
Cell viability, Average ([1]; Time 2 h): 5.215
Cell viability, Average ([1]; Time 3 h): 5.965
Cell viability, Average ([1]; Time 4 h): 9.105
Cell viability, Average ([1]; Time 5 h): 3.565
Cell viability, Average ([1]; Time 6 h): 4.8

O=C(/C=C/C=C/c1ccc2c(c1)OCO2)N1CCCCC1 [Piperine, (2E,4E)-5-(2H-1,3-Benzodioxol-5-yl)-1-(piperidin-1-yl)penta-2,4-dien-1-one]
Cell viability, Average [1, 4]: 6.37
Cell viability, Average ([1]; Time 2 h): 30.25
Cell viability, Average ([1]; Time 3 h): 21.625
Cell viability, Average ([1]; Time 4 h): 14.125
Cell viability, Average ([1]; Time 5 h): 12.32
Cell viability, Average ([1]; Time 6 h): 6.74
solubility ([2]; in alcohol): soluble
solubility ([2]; in water): insoluble

C=C1CC[C@H](O)C/C1=C/C=C1\CCC[C@]2(C)[C@@H]([C@H](C)CCCC(C)C)CC[C@@H]12 [Vitamin D3]
Cell viability, Average [1, 4]: 6.91
Cell viability, Average ([1]; Time 2 h): 14.185
Cell viability, Average ([1]; Time 3 h): 18.32
Cell viability, Average ([1]; Time 4 h): 16.325
Cell viability, Average ([1]; Time 5 h): 9.315
Cell viability, Average ([1]; Time 6 h): 0.78
Speed (percentage velocity calculated with respect to the control) ([3]; Time 2 h): 15.00%
Speed (percentage velocity calculated with respect to the control) ([3]; Time 3 h): 19.00%
Speed (percentage velocity calculated with respect to the control) ([3]; Time 4 h): 17.00%
Speed (percentage velocity calculated with respect to the control) ([3]; Time 5 h): 13.00%
Speed (percentage velocity calculated with respect to the control) ([3]; Time 6 h): 10.00%
Speed (percentage velocity calculated with respect to the control) ([3]; time 1 h): 10.00%
Speed (percentage velocity calculated with respect to the control) ([3]; time point printed as 30): 8.00%
